Source: publication PMC2828353 (Journal of inherited metabolic disease, 2008)

Biological target: T1, DMGDH (His6-DMGDH, mature human dimethylglycine dehydrogenase) (Homo sapiens, UniProt Q9UI17)
T1 sequence (Q9UI17 51-866): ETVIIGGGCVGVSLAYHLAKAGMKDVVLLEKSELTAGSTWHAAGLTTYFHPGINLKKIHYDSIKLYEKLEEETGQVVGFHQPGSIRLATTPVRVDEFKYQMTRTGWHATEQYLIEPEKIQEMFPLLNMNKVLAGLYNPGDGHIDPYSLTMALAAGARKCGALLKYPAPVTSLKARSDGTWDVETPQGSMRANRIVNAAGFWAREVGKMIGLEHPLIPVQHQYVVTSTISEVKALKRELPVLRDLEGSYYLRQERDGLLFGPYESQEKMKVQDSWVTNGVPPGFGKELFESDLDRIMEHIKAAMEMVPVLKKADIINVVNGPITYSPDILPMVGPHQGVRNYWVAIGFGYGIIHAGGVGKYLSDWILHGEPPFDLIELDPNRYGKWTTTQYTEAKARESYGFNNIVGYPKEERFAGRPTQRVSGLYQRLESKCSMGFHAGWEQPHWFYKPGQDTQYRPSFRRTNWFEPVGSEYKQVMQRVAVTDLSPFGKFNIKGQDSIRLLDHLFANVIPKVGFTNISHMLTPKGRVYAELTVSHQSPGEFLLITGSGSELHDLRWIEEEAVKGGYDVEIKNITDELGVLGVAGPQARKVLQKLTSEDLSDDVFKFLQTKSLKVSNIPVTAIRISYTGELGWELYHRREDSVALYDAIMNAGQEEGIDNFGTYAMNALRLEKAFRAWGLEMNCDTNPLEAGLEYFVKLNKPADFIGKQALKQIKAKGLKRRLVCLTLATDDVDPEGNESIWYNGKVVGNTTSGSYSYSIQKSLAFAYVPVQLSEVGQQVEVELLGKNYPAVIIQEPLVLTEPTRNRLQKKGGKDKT
Test: ferricenium reduction at […] nm
Type: biochemical
Conditions: dimethylglycine as substrate, Hepes pH 7.5, 25°C

## Nc1nc2c(c(=O)[nH]1)N[C@@H](CNc1ccc(C(=O)N[C@@H](CCC(=O)O)C(=O)O)cc1)CN2 [tetrahydrofolate]
  % decrease in Vmax at 4 μmol/L: ~ 25%
